According to US20130225669A1 (priority 2012, published 2013):
Values joined by “and” are separate entries in the source; they are usually repeats but may differ in a detail not shown here. Equal values may be shown once. “Also recorded” adds a separate entry of the source. Read-outs that look alike come from different tables or passages of the source.

What was measured:
[1] = tested on: over 40 bacterial (non-spore forms) and fungal species; conditions: most 20-40%; cited from earlier work
[2] = cited from earlier work
[3] = tested on: Bacillus subtilis var. niger spores; format: cell-based; conditions: for spore strips sterilized: room temperature (Example 6)
Description: The sterilization potential of genipin was measured by treating B. subtilis mini spore strips with 1.2×10^6 bacterial spores (ATCC 9372, North American Science Associates, Inc., Northwood, Ohio) with 0.5 mL of sterile 1:1 dimethyl sulfoxide (Avantor Performance Materials, Inc., Center Valley, Pa.): phosphate-buffered saline (Fisher Scientific, Pittsburgh, Pa.) (DMSO: PBS, v/v); 2%, 6%, and 10% genipin in 1:1 DMSO:PBS; and 10% formalin (Fisher Scientific, Pittsburgh, Pa.) (N=4 per group). Genipin treatments corresponded to 8.3 mg, 25 mg, and 42 mg genipin per 10^6 spores for the 2%, 6%, and 10% groups, respectively. Treatment was conducted at room temperature, 20-25° C., for 24 hours and 72 hours. Spore strips were subsequently washed with sterile water and aseptically transferred to Releasat® rapid-readout color changing vials (SGM Biotech, Bozeman, Mont.) which have soybean-casein digest medium with the pH indicator phenol red, designed to change color from orange to yellow in the presence of spore germination and proliferation. Spores were incubated for one week at 37° C.
B. subtilis mini spores strips with 1.2×10^6 spores were treated with 0.5 mL of sterile PBS and 1:1 DMSO:PBS without genipin; 0.03%, 0.32%, and 0.63% genipin in 1:1 DMSO: PBS; 0.63% genipin in PBS; and 10% formalin for 72 hours at room temperature (N=4 per group). Genipin treatments corresponded to 0.13 mg, 1.3 mg, and 2.6 mg genipin per 10^6 spores for the 0.03%, 0.32%, and 0.63% groups, respectively. Spore strips were subsequently washed with sterile water, aseptically transferred to Releasat® vials, and incubated for one week at 37° C.
B. subtilis mini spores strips with 1.2×10^6 spores were treated with 0.5 mL of sterile 1:1 DMSO:PBS without genipin; 0.63%, 2%, 6%, and 10% genipin in 1:1 DMSO:PBS; and 10% formalin for 72 hours at room temperature (N=4 per group). Spore strips were subsequently washed with sterile water, aseptically transferred to Releasat® vials, and incubated for one week at 37° C.
A priori power analysis was performed with G*Power (G*Power 3.1.3, Kiel, Germany). To detect at least a one-log difference in population assays, comparing groups at an α=0.05 and power >0.999 required N=3 per group. One-tailed Mann-Whitney U tests were performed for comparing population assay groups. Chi squared tests and binomial exact confidence intervals were performed comparing spore viability against expected spore counts for dichotomous (sterile, non-sterile) growth in medium based on the manufacturer's certificate of analysis (COA), and the population assays (PA, for B. subtilis only), using Minitab 16 (Minitab, Inc., State College, Pa.). Statistical significance was set at p≦0.05.

[4] = tested on: Bacillus subtilis var. niger spores; format: cell-based; conditions: for colonies at the 1-log reduction level: 72 hours, room temperature
Description: B. subtilis mini spores strips with 1.2×10^6 spores were treated with 0.5 mL of sterile PBS; 1:1 DMSO:PBS without genipin; 0.63%, 2%, 6%, and 10% genipin in 1:1 DMSO:PBS; and 10% formalin for 72 hours at room temperature (N=4 per group). Spore strips were then washed with sterile water and then aseptically macerated, serially diluted, and plated onto petri dishes with soybean-casein digest agar (Mo Bio Laboratories, Carlsbad, Calif.). Spores were incubated for 48 hours at 32.5° C. after which time colony counts were performed.

[5] = tested on: Geobacillus stearothermophilus spores; assay: Spore strip sterilization, soybean-casein medium; format: cell-based
Description: (§1) Spore strips of B. pumilus (ATCC 27142) with 1.9×10^6 spores (SGM Biotech, Bozeman, Mont.) and G. stearothermophilus (ATCC 7953) with 1.9×10^6 spores (SGM Biotech, Bozeman, Mont.) were treated with doses of genipin equivalent to those that sterilized of B. subtilis. B. pumilus conventional spore strips were treated with 1.75 mL of solution and G stearothermophilus mini spore strips were treated with 0.5 mL of solution. Spore strips were treated with 1:1 DMSO:PBS; 2.6 mg, 8.3 mg, 25 mg, and […] genipin per 10^6 spores in 1:1 DMSO:PBS; and 10% formalin (N=4). After treatment for 72 hours spore strips were washed and transferred to soybean-casein medium (Becton Dickinson, Franklin Lanes, N.J.). B. pumilus was incubated at 32.5° C. and G stearothermophilus was incubated at 57.5° C.

[6] = tested on: fibroblasts; conditions: cited from earlier work
[7] = tested on: Chinese hamster ovary (CHO-K1) cells; conditions: in vitro; cited from earlier work
[8] = tested on: cells in culture; conditions: 2200 μMolar sterile genipin; cited from earlier work
[9] = tested on: osteoblasts; conditions: cells directly exposed to genipin solution; cited from earlier work
[10] = tested on: fibroblasts; conditions: cells directly exposed to genipin solution; cited from earlier work
[11] = tested on: bovine nucleus pulposus cells; conditions: cells entrapped in chitosan gels crosslinked with 5% genipin; cited from earlier work
[12] = tested on: Bacillus subtilis var. niger spores; format: cell-based
[13] = cited from earlier work; remark: listed apart in the source
[14] = tested on: 3T3 fibroblasts; conditions: in vitro; cited from earlier work
[15] = tested on: B. subtilis spores; assay: Scanning electron microscopy of genipin-treated spores; format: cell-based; conditions: 10% and 0.63% genipin in 1:1 DMSO:PBS, 72 hours, room temperature
Description: The morphology of B. subtilis was evaluated using scanning electron microscopy. Spore strips were either untreated, treated with 0.5 mL of sterile 1:1 DMSO:PBS without genipin, or 0.5 mL of sterile 0.63% or 10% genipin in 1:1 DMSO:PBS for 72 hours at room temperature. After treatment, spore strips were washed with sterile water and dehydrated with increasing concentrations of ethanol (70%, 80%, 90%, and 100%) and subjected to critical point drying. The spore strips were mounted onto a stage, sputter coated with gold, and visualized under a scanning electron microscopy (Hitachi S-4500 Cold Field Emission SEM, Hitachi, Ltd., Tokyo, Japan).

[16] = tested on: B. pumilus spores; assay: Spore strip sterilization, soybean-casein medium; format: cell-based; conditions: 72 hours
Description: as §1

[17] = 0.03% genipin in 1:1 DMSO:PBS, 72 hours, room temperature
[18] = 0.32% genipin in 1:1 DMSO:PBS, 72 hours, room temperature

C[S+](C)[O-] [DMSO, dimethyl sulfoxide]
microbicidal concentration [1]: 8 to 40% | toxicity rate ([2]; DMSO washed off or less than 10% DMSO): 0.3% | toxicity incidence ([2]; stem cells cryopreserved with 10% DMSO, review of 34,000 transplants): 1.5%

C=O [formalin, reference compound]
spore strip viability/sterility ([3]; 10% formalin, 24 hours, room temperature): orange (sterile) | colonies at the 1-log reduction level ([4]; 10% formalin): no colonies | spore strip viability/sterility ([5]; 10% formalin, 72 hours): presence of spore viability | spore strips from which G. stearothermophilus grew ([5]; 10% formalin, 72 hours): 100% | time required to demonstrate viability ([5]; 10% formalin, 72 hours treatment): 2.25 ± 0.50 days | spore strip viability/sterility ([5]; 10% formalin, 72 hours, listed as 10% formalin): demonstrated viability

O=CCCCC=O [glutaraldehyde, reference compound]
fibroblast proliferation on treated tissue ([6]; 0.625% glutaraldehyde-treated pericardia, after seven days): no cellular proliferation

COC(=O)C1=CO[C@@H](O)C2C(CO)=CC[C@H]12 (stereo in doubt) [genipin, methyl (1R,2R,6S)-2-hydroxy-9-(hydroxymethyl)-3-oxabicyclo [4.3.0]nona-4,8-diene-5-carboxylate]
clastogenic response [7]: does not cause clastogenic response | cell death [8]: complete cell death | concentration sufficient for cytotoxicity [9]: 80-100 ppm | concentration sufficient for cytotoxicity [10]: 80-100 ppm | cell viability [11]: up to 87% | sterile vials ([12]; 0.63% genipin in 50% DMSO/50% PBS, room temperature (Example 12)): 2/5 | log reduction in spore viability ([12]; 0.63% genipin in PBS, 37° C.): ≥ 6 log | sterile vials ([12]; 0.63% genipin, all doses of DMSO (0-50%) in PBS, 37° C.): 5/5 | fibroblast proliferation on treated tissue ([6]; bovine pericardia treated with 0.625% genipin in PBS, within three days): substantial fibroblast proliferation | log reduction in spore viability [3, 17]: 5- to 6 log and > 5 log | spore strips sterile [3, 17]: two of four | log reduction in spore viability [3, 18]: 5- to 6 log and > 5 log | spore strips sterile [3, 18]: one of four | spore strips sterile ([3]; 0.63% genipin in 1:1 DMSO:PBS, 72 hours, room temperature (Example 7)): Three of four | spore strip viability/sterility ([3]; 0.63% genipin in PBS, 72 hours, room temperature): demonstrated viability | log reduction in spore viability ([3]; 0.63% genipin, all doses of DMSO (0-50%), 37° C.): ≥ 6 log | spore strip viability/sterility ([3]; 0.63%, 2%, 6%, 10% genipin in 1:1 DMSO:PBS, 72 hours, room temperature (confirmation, Example 8)): sterilized the spore strips | log reduction in spore viability ([3]; 0.63%-10% genipin in 1:1 DMSO:PBS, 72 hours, room temperature (confirmatory experiment)): at least 6 log | genipin dose necessary for eradication of B. subtilis ([3]; 1:1 DMSO:PBS, 72 hours, room temperature): at least 2.6 mg/10^6 spores | spore strips sterilized ([3]; 2% genipin in 1:1 DMSO:PBS, 72 hours): 3 of 4 | spore strip viability/sterility ([3]; 2%-10% genipin in 1:1 DMSO:PBS, 24 hours, room temperature): demonstrated bacterial viability; also recorded: unable to sterilize any spore strips; also recorded: yellow (growth) | spore strips sterilized ([3]; 6% genipin in 1:1 DMSO:PBS, 72 hours): 3 of 4 | spore strips sterilized ([3]; 10% genipin in 1:1 DMSO:PBS, 72 hours): all | relative solubility in solvents ([13]; organic solvents versus PBS): more soluble in ethanol than in PBS; also recorded: substantially more soluble in organic solvents | solubility in PBS ([13]; phosphate-buffered saline): approximately 1% | cytotoxicity compared with glutaraldehyde [14]: substantially less cytotoxic than glutaraldehyde | spore morphology versus untreated spore strips [15]: no appreciable morphological differences | colonies at the 1-log reduction level ([4]; 0.63% genipin in 1:1 DMSO:PBS): no colonies | log reduction in B. subtilis viability ([4]; 0.63% genipin in PBS, one week treatment (unpublished pilot data)): 2 log | colonies at the 1-log reduction level ([4]; 2% genipin in 1:1 DMSO:PBS): no colonies | colonies at the 1-log reduction level ([4]; 6% genipin in 1:1 DMSO:PBS): no colonies | colonies at the 1-log reduction level ([4]; 10% genipin in 1:1 DMSO:PBS): three 10% genipin-treated spore strips yielded no colonies | log reduction in spore viability ([16]; 2.6 mg-42 mg genipin/10^6 spores in 1:1 DMSO:PBS, room temperature): at least 6 log | spore strips sterilized ([16]; all genipin doses (2.6-42 mg per 10^6 spores) in 1:1 DMSO:PBS): 4/4 | spore strips sterilized ([5]; 2.6 mg genipin/10^6 spores in 1:1 DMSO:PBS, 72 hours): Three of 4 | log reduction in spore viability ([5]; 2.6 mg-42 mg genipin/10^6 spores in 1:1 DMSO:PBS, 72 hours, room temperature): at least 6 log | spore strips sterilized ([5]; 8.3 mg genipin/10^6 spores in 1:1 DMSO:PBS, 72 hours): 4/4 | spore strips sterilized ([5]; 25 mg genipin/10^6 spores in 1:1 DMSO:PBS, 72 hours): Three of 4 | spore strips sterilized ([5]; 42 mg genipin/10^6 spores in 1:1 DMSO:PBS, 72 hours): 4/4
